In the supplement of paper PMC11451515:

Assays:
Conditions in all cases: 48 h
NOMO1 [1] = experiment: cell viability relative to DMSO control; higher = less cytotoxic
Outline: (§1)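 Library compounds in DMSO were pin-dosed into 1536-well plates (5 μl) holding NOMO1 or SEM (500 cells/well) or P12-Ichikawa (1000 cells/well) leukemia cells, across an 11-point threefold series of 47 μM to 0.79 nM. Each cell line had been adapted for at least four passages in each medium. CellTiter-Glo One luminescence was read after 48 h at 37°C. Viability is the per-plate percentage relative to DMSO wells, with cell-free wells as background.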

P12-Ichikawa [2] = experiment: as above
Outline: as §1

SEM cells [3] = experiment: as above
Outline: as §1

NOMO1 [4] = experiment: AUC of viability dose-response curve (% viability x log10 dose units); higher = less sensitive
Outline: (§2)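 Leukemia cells adapted to each medium were seeded at 500 or 1000 cells/well in 1536-well plates and dosed with library compounds in DMSO at 11 threefold doses from 47 μM to 0.79 nM for 48 h at 37°C. CellTiter-Glo One luminescence was normalised per plate to DMSO and cell-free wells, then fitted with a four-parameter log-logistic model over log10 doses. Area under the curve was taken from this fit by the trapezoidal rule, with curves above full viability scaled and curves failing quality control removed.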

P12-Ichikawa [5] = experiment: as above
Outline: as §2

SEM cells [6] = experiment: as above
Outline: as §2

c1ccc(CCCN2CCN(CCOC(c3ccccc3)c3ccccc3)CC2)cc1
cell viability [%]
Conditions | NOMO1 [1] | P12-Ichikawa [2] | SEM cells [3]
HPLM + 10% dialyzed FBS, 0.000781 µM | 91.4 | 89.2 | 27.6
HPLM + 10% dialyzed FBS, 0.00234 µM | 95.1 | 90.8 | 98.3
HPLM + 10% dialyzed FBS, 0.00702 µM | 101 | 104 | 99.1
HPLM + 10% dialyzed FBS, 0.0211 µM | 100 | 95.5 | 103
HPLM + 10% dialyzed FBS, 0.0632 µM | 85 | 99.2 | 97.9
HPLM + 10% dialyzed FBS, 0.19 µM | 100 | 91.3 | 104
HPLM + 10% dialyzed FBS, 0.569 µM | 92.9 | 89.7 | 87.4
HPLM + 10% dialyzed FBS, 1.71 µM | 103 | 87.5 | 99.9
HPLM + 10% dialyzed FBS, 5.12 µM | 83.1 | 91.6 | 87.1
HPLM + 10% dialyzed FBS, 15.4 µM | 78.9 | 77.3 | 33.9
HPLM + 10% dialyzed FBS, 46.1 µM | 53.9 | 67.3 | 44.6
RPMI 5 mM glucose + 10% FBS, 0.000781 µM | 80.3 | 91.4 | 69.2
RPMI 5 mM glucose + 10% FBS, 0.00234 µM | 83.3 | 97.1 | 106
RPMI 5 mM glucose + 10% FBS, 0.00702 µM | 96 | 94.4 | 104
RPMI 5 mM glucose + 10% FBS, 0.0211 µM | 99.5 | 94.5 | 98
RPMI 5 mM glucose + 10% FBS, 0.0632 µM | 94.9 | 93.9 | 91.7
RPMI 5 mM glucose + 10% FBS, 0.19 µM | 90.3 | 94 | 85.9
RPMI 5 mM glucose + 10% FBS, 0.569 µM | 85.6 | 98.2 | 102
RPMI 5 mM glucose + 10% FBS, 1.71 µM | 76.1 | 90.2 | 89
RPMI 5 mM glucose + 10% FBS, 5.12 µM | 83.3 | 92.3 | 91
RPMI 5 mM glucose + 10% FBS, 15.4 µM | 78 | 78.4 | 19.2
RPMI 5 mM glucose + 10% FBS, 46.1 µM | 73.8 | 55 | 61.8
RPMI 5 mM glucose + 10% dialyzed FBS, 0.000781 µM | 89.3 | 83.7 | 78.9
RPMI 5 mM glucose + 10% dialyzed FBS, 0.00234 µM | 97.3 | 88.3 | 103
RPMI 5 mM glucose + 10% dialyzed FBS, 0.00702 µM | 92.7 | 88 | 114
RPMI 5 mM glucose + 10% dialyzed FBS, 0.0211 µM | 96.5 | 91.4 | 100
RPMI 5 mM glucose + 10% dialyzed FBS, 0.0632 µM | 89.7 | 94.1 | 99.4
RPMI 5 mM glucose + 10% dialyzed FBS, 0.19 µM | 92.5 | 85 | 96
RPMI 5 mM glucose + 10% dialyzed FBS, 0.569 µM | 85.5 | 94.7 | 73
RPMI 5 mM glucose + 10% dialyzed FBS, 1.71 µM | 86.2 | 87.1 | 96.5
RPMI 5 mM glucose + 10% dialyzed FBS, 5.12 µM | 86.3 | 88.5 | 92.5
RPMI 5 mM glucose + 10% dialyzed FBS, 15.4 µM | 66.8 | 75.2 | 23
RPMI 5 mM glucose + 10% dialyzed FBS, 46.1 µM | 24.3 | 38.3 | 50.5

AUC of viability dose-response curve
Conditions | HPLM + 10% dialyzed FBS | RPMI 5 mM glucose + 10% FBS | RPMI 5 mM glucose + 10% dialyzed FBS
NOMO1 [4] | 434 | 409 | 405
P12-Ichikawa [5] | 431 | 432 | 406

O=C(/C=C\n1cnc(-c2cc(C(F)(F)F)cc(C(F)(F)F)c2)n1)NNc1cnccn1
AUC of viability dose-response curve
Conditions | HPLM + 10% dialyzed FBS | RPMI 5 mM glucose + 10% FBS | RPMI 5 mM glucose + 10% dialyzed FBS
P12-Ichikawa [5] | 302 | 296 | 295
SEM cells [6] | 310 | 301 | 309

C[C@H](CCC(=O)O)[C@H]1CC[C@H]2[C@@H]3[C@@H](O)C[C@@H]4C[C@H](O)CC[C@]4(C)[C@H]3CC[C@]12C
AUC of viability dose-response curve
Conditions | NOMO1 [4] | P12-Ichikawa [5] | SEM cells [6]
HPLM + 10% dialyzed FBS | 401 | 445 | 441
RPMI 5 mM glucose + 10% FBS | 414 | 461 | 462
RPMI 5 mM glucose + 10% dialyzed FBS | 398 | 435 | 449

C/C=C/C/C=C/CCC(=O)[C@H]1O[C@H]1C(N)=O
cell viability [%], SEM cells [3]
Conditions | HPLM + 10% dialyzed FBS | RPMI 5 mM glucose + 10% FBS
0.000781 µM | 105 | 106
0.00234 µM | 107 | 117
0.00702 µM | 118 | 132
0.0211 µM | 123 | 110
0.0632 µM | 117 | 121
0.19 µM | 126 | 120
0.569 µM | 109 | 132
1.71 µM | 124 | 111
5.12 µM | 113 | 128
15.4 µM | 112 | 118
46.1 µM | 71.5 | 55.3

AUC of viability dose-response curve
Conditions | NOMO1 [4] | P12-Ichikawa [5] | SEM cells [6]
HPLM + 10% dialyzed FBS | 457 | 470 | 466
RPMI 5 mM glucose + 10% FBS | 458 | 473 | 464
RPMI 5 mM glucose + 10% dialyzed FBS | 476 | 469 | 464

O=C1NC(=O)/C(=C\c2ccc(-c3ccc(F)cc3)o2)S1
AUC of viability dose-response curve
Conditions | NOMO1 [4] | P12-Ichikawa [5] | SEM cells [6]
HPLM + 10% dialyzed FBS | 415 | 436 | 455
RPMI 5 mM glucose + 10% FBS | 462 | 445 | 462
RPMI 5 mM glucose + 10% dialyzed FBS | 444 | 455 | 457

CCN1\C=C(\C(O)=O)C(=O)C2=C1C=C(N3CCNCC3)C(=C2)F
cell viability [%], SEM cells [3]
Conditions | HPLM + 10% dialyzed FBS | RPMI 5 mM glucose + 10% dialyzed FBS
0.000781 µM | 95 | 117
0.00234 µM | 130 | 124
0.00702 µM | 125 | 125
0.0211 µM | 136 | 129
0.0632 µM | 116 | 108
0.19 µM | 59.4 | 48.3
0.569 µM | 112 | 114
1.71 µM | 77.9 | 104
5.12 µM | 90.6 | 98
15.4 µM | 59.8 | 101
46.1 µM | 78.8 | 77.8

AUC of viability dose-response curve
Conditions | NOMO1 [4] | P12-Ichikawa [5] | SEM cells [6]
HPLM + 10% dialyzed FBS | 430 | 456 | 385
RPMI 5 mM glucose + 10% FBS | 465 | 433 | 392
RPMI 5 mM glucose + 10% dialyzed FBS | 455 | 449 | 404

CCn1cc(-c2ccnc3[nH]c(-c4cccc(CN(C)C)c4)cc23)c(-c2ccc(NC(=O)N(C)C)cc2)n1
SEM cells [3], HPLM + 10% dialyzed FBS
Conditions | cell viability [%]
0.000781 µM | 123
0.00234 µM | 112
0.00702 µM | 135
0.0211 µM | 138
0.0632 µM | 79.6
0.19 µM | 52.5
0.569 µM | 44.8
1.71 µM | 48.9
5.12 µM | 41.6
15.4 µM | 19.4
46.1 µM | 9.33

AUC of viability dose-response curve
Conditions | NOMO1 [4] | P12-Ichikawa [5] | SEM cells [6]
HPLM + 10% dialyzed FBS | 375 | 220 | 271
RPMI 5 mM glucose + 10% FBS | 318 | 234 | 224
RPMI 5 mM glucose + 10% dialyzed FBS | 323 | 252 | 233

OC[C@H]1O[C@@H](O[C@@H]2O\C=C(/[C@H]3C\C=C(CO)/[C@@H]23)C(O)=O)[C@H](O)[C@@H](O)[C@@H]1O
AUC of viability dose-response curve
Conditions | NOMO1 [4] | P12-Ichikawa [5] | SEM cells [6]
HPLM + 10% dialyzed FBS | 453 | 449 | 452
RPMI 5 mM glucose + 10% FBS | 449 | 468 | 475
RPMI 5 mM glucose + 10% dialyzed FBS | 455 | 418 | 462
